Key:
Format in all cases: cell-based
[1] = tested on: Aspergillus niger (ATCC 6275); assay: MIC and synergy on Malt Agar; conditions: 28° C., 10–12 days
Method: (§1) One hundred μl of the bacterial suspensions were added to TSB broth containing each biocide or biocide mixture to a final concentration of approximately 10^6 CFU/ml. The inoculated broth was then incubated at 32° C. for 2–3 days. For fungi MIC, 10 μl of the fungi suspensions were pipetted to the solidified Malt agar containing various concentrations of each biocide or the biocide mixture. Final concentration about 10^5 spores/ml. Plates were incubated for 10–12 days at 28° C.
(§2) The lowest concentration of each compound or mixture to inhibit visible growth at 32° C. after 2–3 days for bacteria and at 28° after 10–12 days for fungi were taken as the Minimal Inhibitory Concentration (MIC). The MIC was taken as endpoints of activity. End points for the mixture of HMBO and IPBC where then compared with the end points for the pure active compound when employed individually.
(§3) Synergism was determined by a commonly used method described by Kull, A. C., Eisman, P. C, Sylwestrowicz, H., D. and Mayer, R. L. (1961). Applied Microbiology, 9:538 using the ratio determined by: Qa/QA+Qb/QB=Synergy Index (SI).
(§4) Wherein: QA is the concentration of HMBO in parts per million (ppm), acting alone, which produced and end point. Qa is the concentration of HMBO in ppm, in the mixture, which produced and end point. QB is the concentration of IPBC in ppm, acting alone, which produced an end point and Qb is the concentraton of IPBC in ppm, in the mixture, which produced an end point.
(§5) When the sum of Qa/QA+Qb/QB is greater than one, antagonism is indicated. When the sum is equal to one, additivity is indicated.

Alternaria alternata = assay: MIC and synergy on Malt Agar; conditions: 28° C., 10–12 days
Method: as §1, §2, §3, §4, §5

[2] = tested on: mixed culture of Pseudomonas aeruginosa, Enterobacter cloacae, Bacillus subtilis, B. megaterium, B. licheniformis, Aspergillus niger and Penicillium …; assay: Latex paint in-can preservation, ASTM D2574-94, mixed inoculum; parameters: key: 0: no growth; 4: heavy growth
Method: The efficacy of each individual compound or their combination was measured in a latex paint artificially contaminated with a mixed inoculum. The microbiological evaluations shown as examples, are based on ASTM D2574–94, “Resistance of emulsion paints in the container to the attack of microorganisms”. Briefly, paint samples (e.g. Polyvinyl Acrylic, PCL 717) were prepared to contain different concentrations of each compound or their mixtures in different concentrations and ratios. Each paint sample thus prepared was then inoculated with a mixed culture of Pseudomonas aeruginosa, Enterobacter cloacae, Bacillus subtilis, B. megaterium, B. licheniformis, Aspergillus niger and Penicillium funiculosum (final concentration of about 10^6 CFU/ml) and re-challenged after 7 days (final concentration of about 10^7 CFU/ml). Paint samples were incubated at 32° C. for the duration of the test and sampled for the presence of viable bacteria on TSA and M plates. Growth was rated on a scale from “0” (no growth) to “4” (heavy growth). A paint sample was considered appropriately preserved if no bacterial growth (“0” rating) was detected after six days incubation in both challenge assays.
The table summarizes the results obtained when mixtures of the low formaldehyde hydroxymethyl oxazolidine (HMBO) (compound A) and IPBC (compound B) in PEG-400 were tested.

[3] = tested on: Bacillus subtilis (ATCC 27328); assay: MIC and synergy in Tryptic Soy Broth; conditions: TSB, 32° C., 2–3 days
Method: as §1, §2, §3
Wherein: QA is the concentration of HMBO in parts per million (ppm), acting alone, which produced and end point. Qa is the concentration of HMBO in ppm, in the mixture, which produced and end point. […]

OCC12COCN1COC2 [compound A, hydroxymethyl bicyclic oxazolidine]
Minimal Inhibitory Concentration (MIC), acting alone [1]: 1,000 ppm
Minimal Inhibitory Concentration (MIC), acting alone (Alternaria alternata): 250 ppm
Growth rating MALT Plates CI 1 ([2]; A alone 500 ppm): 0
Growth rating MALT Plates CI 2 ([2]; A alone 500 ppm): 0
Growth rating MALT Plates CI 3 ([2]; A alone 500 ppm): 0
Growth rating MALT Plates CI 6 ([2]; A alone 500 ppm): 0
Growth rating MALT Plates CII 1 ([2]; A alone 500 ppm): 0
Growth rating MALT Plates CII 2 ([2]; A alone 500 ppm): 0
Growth rating MALT Plates CII 3 ([2]; A alone 500 ppm): 0
Growth rating MALT Plates CII 6 ([2]; A alone 500 ppm): 0
Growth rating TSA plates CI 1 ([2]; A alone 500 ppm): 0
Growth rating TSA plates CI 2 ([2]; A alone 500 ppm): 0
Growth rating TSA plates CI 3 ([2]; A alone 500 ppm): 0
Growth rating TSA plates CI 6 ([2]; A alone 500 ppm): 0
Growth rating TSA plates CII 1 ([2]; A alone 500 ppm): 1
Growth rating TSA plates CII 2 ([2]; A alone 500 ppm): 1
Growth rating TSA plates CII 3 ([2]; A alone 500 ppm): 1
Growth rating TSA plates CII 6 ([2]; A alone 500 ppm): 1
Growth rating MALT Plates CI 1 ([2]; A alone 520 ppm): 0
Growth rating MALT Plates CI 2 ([2]; A alone 520 ppm): 0
Growth rating MALT Plates CI 3 ([2]; A alone 520 ppm): 0
Growth rating MALT Plates CI 6 ([2]; A alone 520 ppm): 0
Growth rating MALT Plates CII 1 ([2]; A alone 520 ppm): 0
Growth rating MALT Plates CII 2 ([2]; A alone 520 ppm): 1
Growth rating MALT Plates CII 3 ([2]; A alone 520 ppm): 1
Growth rating MALT Plates CII 6 ([2]; A alone 520 ppm): 0
Growth rating TSA plates CI 1 ([2]; A alone 520 ppm): 0
Growth rating TSA plates CI 2 ([2]; A alone 520 ppm): 0
Growth rating TSA plates CI 3 ([2]; A alone 520 ppm): 0
Growth rating TSA plates CI 6 ([2]; A alone 520 ppm): 0
Growth rating TSA plates CII 1 ([2]; A alone 520 ppm): 0
Growth rating TSA plates CII 2 ([2]; A alone 520 ppm): 0
Growth rating TSA plates CII 3 ([2]; A alone 520 ppm): 1
Growth rating TSA plates CII 6 ([2]; A alone 520 ppm): 0
Minimal Inhibitory Concentration (MIC), acting alone [3]: 250 ppm

CCCCNC(=O)OCC#CI [compound B, iodopropynyl butyl carbamate]
Minimal Inhibitory Concentration (MIC), acting alone [1]: 0.25 ppm
Minimal Inhibitory Concentration (MIC), acting alone (Alternaria alternata): 0.50 ppm
Growth rating MALT Plates CI 1 ([2]; B alone 60 ppm): 0
Growth rating MALT Plates CI 2 ([2]; B alone 60 ppm): 1
Growth rating MALT Plates CI 3 ([2]; B alone 60 ppm): 0
Growth rating MALT Plates CI 6 ([2]; B alone 60 ppm): 0
Growth rating MALT Plates CII 1 ([2]; B alone 60 ppm): 4
Growth rating MALT Plates CII 2 ([2]; B alone 60 ppm): 4
Growth rating MALT Plates CII 3 ([2]; B alone 60 ppm): 4
Growth rating MALT Plates CII 6 ([2]; B alone 60 ppm): 4
Growth rating TSA plates CI 1 ([2]; B alone 60 ppm): 0
Growth rating TSA plates CI 2 ([2]; B alone 60 ppm): 0
Growth rating TSA plates CI 3 ([2]; B alone 60 ppm): 1
Growth rating TSA plates CI 6 ([2]; B alone 60 ppm): 0
Growth rating TSA plates CII 1 ([2]; B alone 60 ppm): 4
Growth rating TSA plates CII 2 ([2]; B alone 60 ppm): 4
Growth rating TSA plates CII 3 ([2]; B alone 60 ppm): 4
Growth rating TSA plates CII 6 ([2]; B alone 60 ppm): 3
Growth rating MALT Plates CI 1 ([2]; B alone 120 ppm): 4
Growth rating MALT Plates CI 2 ([2]; B alone 120 ppm): 4
Growth rating MALT Plates CI 3 ([2]; B alone 120 ppm): 2
Growth rating MALT Plates CI 6 ([2]; B alone 120 ppm): 0
Growth rating MALT Plates CII 1 ([2]; B alone 120 ppm): 4
Growth rating MALT Plates CII 2 ([2]; B alone 120 ppm): 4
Growth rating MALT Plates CII 3 ([2]; B alone 120 ppm): 4
Growth rating MALT Plates CII 6 ([2]; B alone 120 ppm): 4
Growth rating TSA plates CI 1 ([2]; B alone 120 ppm): 4
Growth rating TSA plates CI 2 ([2]; B alone 120 ppm): 2
Growth rating TSA plates CI 3 ([2]; B alone 120 ppm): 0
Growth rating TSA plates CI 6 ([2]; B alone 120 ppm): 0
Growth rating TSA plates CII 1 ([2]; B alone 120 ppm): 4
Growth rating TSA plates CII 2 ([2]; B alone 120 ppm): 3
Growth rating TSA plates CII 3 ([2]; B alone 120 ppm): 3
Growth rating TSA plates CII 6 ([2]; B alone 120 ppm): 3
Growth rating MALT Plates CI 1 ([2]; B alone 200 ppm): 4
Growth rating MALT Plates CI 2 ([2]; B alone 200 ppm): 2
Growth rating MALT Plates CI 3 ([2]; B alone 200 ppm): 1
Growth rating MALT Plates CI 6 ([2]; B alone 200 ppm): 0
Growth rating MALT Plates CII 1 ([2]; B alone 200 ppm): 4
Growth rating MALT Plates CII 2 ([2]; B alone 200 ppm): 4
Growth rating MALT Plates CII 3 ([2]; B alone 200 ppm): 4
Growth rating MALT Plates CII 6 ([2]; B alone 200 ppm): 4
Growth rating TSA plates CI 1 ([2]; B alone 200 ppm): 4
Growth rating TSA plates CI 2 ([2]; B alone 200 ppm): 2
Growth rating TSA plates CI 3 ([2]; B alone 200 ppm): 0
Growth rating TSA plates CI 6 ([2]; B alone 200 ppm): 0
Growth rating TSA plates CII 1 ([2]; B alone 200 ppm): 4
Growth rating TSA plates CII 2 ([2]; B alone 200 ppm): 3
Growth rating TSA plates CII 3 ([2]; B alone 200 ppm): 3
Growth rating TSA plates CII 6 ([2]; B alone 200 ppm): 3
Minimal Inhibitory Concentration (MIC), acting alone [3]: 62.5 ppm

Reference: patent publication US7115641B2, “Antimicrobial oxazolidine/iodopropynyl-butyl carbamate composition containing less than 0.1wt% free formaldehyde” (ISP Investments Inc., priority 2003, dated 2006)
